Data set [1] relates to Candida albicans. Briefly: Antifungal activity against Candida albicans MY1055 assessed as fungal growth inhibition measured after 24 hrs in presence of mouse serum by liquid microdilution method. Type of data set: functional.
The test system of data set [2] is Candida albicans. Briefly: Antifungal activity against Candida albicans MY1055 infected in DBA mouse model assessed as log change in colony forming units in kidney at 12.5 mg/kg, po bid for 2 days and measured after 4 days by TOKA. Type of data set: functional. The following applies: time 2 day.
Data set [3] concerns Candida albicans. Briefly: Antifungal activity against Candida albicans MY1055 infected in DBA/2 mouse model assessed as log change in colony forming units in kidney at 25 mg/kg, po bid for 2 days and measured after 4 days by TOKA. The format is functional. To be noted: time 2 day.
Data set [4] is described as follows: Oral bioavailability in mouse. The format is ADME, organism-based. The following applies: in vivo.
Data set [5] deals with Candida albicans. Briefly: Antifungal activity against Candida albicans MY1055 assessed as fungal growth inhibition measured after 24 hrs by liquid microdilution method. The format is functional.
For data set [6], the system named is Aspergillus fumigatus. Briefly: Antifungal activity against Aspergillus fumigatus MF5668 assessed as fungal growth inhibition measured after 24 hrs by liquid microdilution method. Type of data set: functional. The following applies: read-out: MEC.
The subject of data set [7] is Candida albicans. Nature of the data set: Antifungal activity against Candida albicans MY1055 infected in DBA/2 mouse model assessed as log change in colony forming units in kidney at 6.5 mg/kg, po bid for 2 days and measured after 4 days by TOKA. The format is functional. The following applies: time 2 day.
Data set [8] is described as follows: Inhibition of beta-1,3-glucan synthase in Candida albicans MY1055 microsomal membrane using UDP-[3H]-glucose as substrate incubated for 2 hrs in presence of UTP by radioactivity-based assay. The format is cell membranes.
In data set [9] the test system is Candida albicans. Briefly: Antifungal activity against Candida albicans MY1055 infected in DBA/2N mouse model assessed as mouse survival at 12.5 mg/kg, ip bid for 7 days and measured post-last dose by TOKA relative to control. Type of data set: functional. To be noted: 168 h, time 7 day.
In data set [10] the test system is Aspergillus fumigatus. Briefly: Antifungal activity against Aspergillus fumigatus MF5668 infected in DBA/2N mouse assessed as mean survival days at 6.25 mg/kg, ip bid administered for 7 days starting from 30 mins post infection and measured up to 21 days relative to control. The format is functional. To be noted: time 7 day.
For data set [11], the system named is Aspergillus fumigatus. Nature of the data set: Antifungal activity against Aspergillus fumigatus MF5668 infected in DBA/2N mouse assessed as mean survival days at 1.56 mg/kg, ip bid administered for 7 days starting from 30 mins post infection and measured up to 21 days relative to control. The format is functional. To be noted: time 7 day.
The nature of data set [12]: Clearance in dog. Type of data set: ADME, Canis lupus familiaris. To be noted: in vivo.
Data set [13] deals with Candida albicans. Nature of the data set: Antifungal activity against Candida albicans MY1055 infected in DBA/2N mouse model assessed as mouse survival at 25 mg/kg, po bid for 7 days and measured post-last dose by TOKA relative to control. The following applies: 168 h, time 7 day. The format is functional.
Data set [14] relates to Aspergillus fumigatus. Briefly: Antifungal activity against Aspergillus fumigatus MF5668 infected in DBA/2N mouse assessed as mouse survival at 1.56 mg/kg, ip bid administered for 7 days starting from 30 mins post infection and measured up to 21 days relative to control. Type of data set: functional. The following applies: 168 h, time 7 day.
Data set [15] in a line: Oral bioavailability in rhesus monkey. The format is ADME, organism-based, Macaca mulatta. The following applies: in vivo.
In data set [16] the test system is Candida albicans. Nature of the data set: Antifungal activity against Candida albicans MY1055 infected in DBA/2N mouse model assessed as mouse survival at 6.5 mg/kg, po bid for 7 days and measured post-last dose by TOKA relative to control. The format is functional. To be noted: 168 h, time 7 day.
Data set [17] is described as follows: Clearance in mouse. The format is ADME, organism-based. To be noted: in vivo.
For data set [18], the system named is Candida albicans. Briefly: Antifungal activity against Candida albicans MY1055 infected in DBA/2N mouse model assessed as mouse survival at 12.5 mg/kg, po bid for 7 days and measured post-last dose by TOKA relative to control. Type of data set: functional. The following applies: 168 h, time 7 day.
The test system of data set [19] is Aspergillus fumigatus. Briefly: Antifungal activity against Aspergillus fumigatus MF5668 infected in DBA/2N mouse assessed as mean survival days at 3.125 mg/kg, ip bid administered for 7 days starting from 30 mins post infection and measured up to 21 days relative to control. The format is functional. To be noted: time 7 day.
The next data set relates to Candida parapsilosis. Nature of the data set: Antifungal activity against Candida parapsilosis ATCC 22019 assessed as fungal growth inhibition. The following applies: Lodderomyces parapsilosis. The format is functional.
A short description of data set [20]: Half lie in mouse. The format is ADME, organism-based. To be noted: in vivo.
The test system of data set [21] is Aspergillus fumigatus. Briefly: Antifungal activity against Aspergillus fumigatus MF5668 infected in DBA/2N mouse assessed as mouse survival at 12.5 mg/kg, ip bid administered for 7 days starting from 30 mins post infection and measured up to 21 days relative to control. The format is functional. To be noted: 168 h, time 7 day.
The next data set deals with Clavispora lusitaniae. Nature of the data set: Antifungal activity against Clavispora lusitaniae MY1396 assessed as fungal growth inhibition. The format is functional.
Data set [22] is described as follows: Oral bioavailability in dog. The format is ADME, organism-based, Canis lupus familiaris. To be noted: in vivo.
Data set [23] is described as follows: Oral bioavailability in rat. Type of data set: ADME, organism-based. To be noted: in vivo.
The test system of data set [24] is Candida albicans. Briefly: Antifungal activity against Candida albicans MY1055 infected in DBA/2N mouse model administered for 7 days by TOKA. Type of data set: functional. To be noted: MY1055, 168 h, time 7 day.
Data set [25] can be described thus: Half life in rhesus monkey. Type of data set: ADME, Macaca mulatta. To be noted: in vivo.
A short description of data set [26]: Half life in rat. The format is ADME. To be noted: in vivo.
Data set [27] can be described thus: Half life in dog. The format is ADME, Canis lupus familiaris. The following applies: in vivo.
The test system of the next data set is Nakaseomyces glabratus. Briefly: Antifungal activity against Candida glabrata MY1381 assessed as fungal growth inhibition. Type of data set: functional.
A further data set deals with Pichia kudriavzevii. Nature of the data set: Antifungal activity against Candida krusei ATCC 6258 assessed as fungal growth inhibition. Type of data set: functional.
In data set [28] the test system is Aspergillus fumigatus. Nature of the data set: Antifungal activity against Aspergillus fumigatus MF5668 infected in DBA/2N mouse assessed as mean survival days at 12.5 mg/kg, ip bid administered for 7 days starting from 30 mins post infection and measured up to 21 days relative to control. The format is functional. The following applies: time 7 day.
Data set [29] concerns Aspergillus fumigatus. Nature of the data set: Antifungal activity against Aspergillus fumigatus MF5668 infected in DBA/2N mouse assessed as mouse survival at 3.125 mg/kg, ip bid administered for 7 days starting from 30 mins post infection and measured up to 21 days relative to control. The format is functional. The following applies: 168 h, time 7 day.
Data set [30] concerns Aspergillus fumigatus. Nature of the data set: Antifungal activity against Aspergillus fumigatus MF5668 infected in DBA/2N mouse assessed as mouse survival at 6.25 mg/kg, ip bid administered for 7 days starting from 30 mins post infection and measured up to 21 days relative to control. The format is functional. The following applies: 168 h, time 7 day.
In another data set the test system is Candida tropicalis. Nature of the data set: Antifungal activity against Candida tropicalis MY1012 assessed as fungal growth inhibition. Type of data set: functional.
Data set [31] in a line: Clearance in rat. Type of data set: ADME. To be noted: in vivo.
A short description of data set [32]: Clearance in rhesus monkey. Type of data set: ADME, Macaca mulatta. To be noted: in vivo.

The structures appear in SMILES notation. Converted amounts (≈) assume the structure as drawn. Some results are limits rather than exact numbers.

On to `CC(C)[C@@H](C)[C@@]1(C)CC[C@]2(C)[C@H]3CC[C@@H]4[C@@]5(COC[C@]4(C)[C@@H](OC[C@H](N)C(C)(C)C)[C@H](n4ncnc4C(N)=O)C5)C3=CC[C@@]2(C)[C@@H]1C(=O)O`, for which the MIC was determined as 8 mg/L with Candida albicans [1] and 0.25 mg/L (≈ 0.367 µM) with Candida albicans [5]. Besides, the values for the Activity in the data set on Candida albicans [2], in the data set on Candida albicans [3] and with Candida albicans [7] were -1.7 log CFU, -2.6 log CFU and -1.9 log CFU, respectively. Also, the bioavailability in data set [4] came to 10%. For the same molecule, the minimal effective concentration in the data set on Aspergillus fumigatus [6] is less than 0.03 µg/mL. In data set [8], the IC50 was determined as 0.008 mg/L.
Consider `CCC(N)(CC)CO[C@H]1[C@H](n2ncnc2C(N)=O)C[C@@]23COC[C@@]1(C)[C@@H]2CC[C@H]1C3=CC[C@@]2(C)[C@H](C(=O)O)[C@@](C)([C@H](C)C(C)C)CC[C@]12C`, for which the MIC in the data set with Candida albicans [1] was found to be 16 mg/L; in the data set on Candida albicans [5], 0.125 mg/L (≈ 0.183 µM). Further, the Activity was -0.6 log CFU in the data set with Candida albicans [2], -1.9 log CFU in the data set with Candida albicans [3] and -0.2 log CFU in the data set on Candida albicans [7]. The same molecule registered a bioavailability in [4] of 3%. Further, the minimal effective concentration in the data set on Aspergillus fumigatus [6] was less than 0.03 µg/mL. For the same molecule, the concentration for half-maximal inhibition (IC50) in data set [8] stood at 0.007 mg/L.
On to `CC(C)NC(=O)c1ncnn1[C@@H]1C[C@@]23COC[C@@](C)([C@@H]2CC[C@H]2C3=CC[C@@]3(C)[C@H](C(=O)O)[C@@](C)([C@H](C)C(C)C)CC[C@]23C)[C@H]1OC[C@](C)(N)C(C)C`, for which the minimum inhibitory concentration (MIC) was 16 mg/L in the data set on Candida albicans [1] and 0.25 mg/L (≈ 0.345 µM) with Candida albicans [5]. The Activity with Candida albicans [2] is reported as -1.8 log CFU; in the data set on Candida albicans [3], -2.3 log CFU; in the data set on Candida albicans [7] it was -0.4 log CFU. In [4], this molecule had a bioavailability of 10%. The minimal effective concentration in the data set on Aspergillus fumigatus [6] was less than 0.03 µg/mL. Further, the IC50 in data set [8] is 0.01 mg/L.
For the molecule `CC(C)[C@@H](C)[C@@]1(C)CC[C@]2(C)[C@H]3CC[C@@H]4[C@@]5(COC[C@]4(C)[C@@H](OC[C@](C)(N)C(C)(C)C)[C@H](n4ncnc4C(N)=O)C5)C3=CC[C@@]2(C)[C@@H]1C(=O)O`, the survival at 12.5 mg/kg is 100% in the data set with Candida albicans [9], 100% with Candida albicans [18] and 60% with Aspergillus fumigatus [21]. For the same molecule, the MSD was 12.5 days in the data set on Aspergillus fumigatus [10], 6.5 days in the data set on Aspergillus fumigatus [11], 7.3 days in the data set with Aspergillus fumigatus [19] and 14.4 days with Aspergillus fumigatus [28]. The minimal inhibitory concentration (MIC) in the data set with Candida albicans [1] worked out at 2 mg/L; with Candida parapsilosis, 0.06 mg/L (≈ 0.0862 µM); in the data set on Clavispora lusitaniae, 0.125 mg/L (≈ 0.18 µM); with Nakaseomyces glabratus, 0.125 mg/L (≈ 0.18 µM); with Pichia kudriavzevii it was 1 mg/L (≈ 1.44 µM); in the data set on Candida albicans [5], 0.06 mg/L (≈ 0.0862 µM). In addition, the MIC in the data set on Candida tropicalis turned out to be 0.5 mg/L (≈ 0.718 µM). Besides, the clearance in data set [12] came to 0.12 L/h/kg; in data set [17] it was 0.66 L/h/kg; in data set [31], 0.36 L/h/kg; in data set [32], 0.24 L/h/kg. Moreover, the values for the Activity in the data set with Candida albicans [2], in the data set with Candida albicans [3] and in the data set on Candida albicans [7] were -2.5 log CFU, -2.2 log CFU and -1.5 log CFU, respectively. The survival at 25 mg/kg in the data set with Candida albicans [13] came to 80%. The survival at 1.56 mg/kg in the data set with Aspergillus fumigatus [14] was 0%. Also, the bioavailability in data set [15] is 12%; in data set [22], 35%; in data set [23], 17%; in data set [4], 12%. Besides, the survival at 6.5 mg/kg in the data set with Candida albicans [16] was 100%. The half-life in data set [20] was 5.1 h; in data set [25] it was 8.5 h; in data set [26], 5.5 h; in [27], 12.3 h. In the data set with Candida albicans [24], this molecule displayed an ED99 of 6.4 mg/kg. Besides, in the data set with Aspergillus fumigatus [29], the survival at 3.125 mg/kg stood at 10%. Further, the survival at 6.25 mg/kg in the data set with Aspergillus fumigatus [30] is 40%. For the same molecule, in the data set with Aspergillus fumigatus [6], the minimal effective concentration was less than 0.03 µg/mL. Besides, the IC50 in [8] stood at 0.003 mg/L.
On to `CC(C)[C@@H](C)[C@@]1(C)CC[C@]2(C)[C@H]3CC[C@@H]4[C@@]5(COC[C@]4(C)[C@@H](OC[C@](C)(N)C(C)C)[C@H](n4ncnc4Br)C5)C3=CC[C@@]2(C)[C@@H]1C(=O)O`, for which the results for the MIC in the data set with Candida albicans [1] and with Candida albicans [5] were 8 mg/L and 0.5 mg/L (≈ 0.697 µM), respectively. Also, the Activity is reported as -1.7 log CFU in the data set with Candida albicans [2], -2.3 log CFU in the data set with Candida albicans [3] and -0.2 log CFU in the data set on Candida albicans [7]. This molecule gave a bioavailability in [4] of 33%. Also, the minimal effective concentration in the data set with Aspergillus fumigatus [6] was less than 0.03 µg/mL. Besides, the IC50 in [8] is 0.002 mg/L.

The values above are taken from ChEMBL document CHEMBL4725308, “MK-5204: An orally active β-1,3-glucan synthesis inhibitor” (Bioorg Med Chem Lett, 2020).
